Reference: ChEMBL document CHEMBL1151099, “Synthesis of new TNF- Inhibitors and their biological properties” (Bioorg Med Chem Lett, 1996)
Blank lines part the entries; values can stand above or below the compound they belong to.

Assays:
Type in all cases: functional
Mus musculus [1] = organism: Mus musculus; test: In vitro inhibitory activity against TNF-alpha production in mouse macrophages stimulated with LPS
Mus musculus [2] = test: Protection against LPS-induced death of D-galactosamine-sensitized mice (10 in number) at specified dose of 0 mg/kg on day 7
Mus musculus [3] = test: Protection against LPS-induced death of D-galactosamine-sensitized mice (10 in number) at specified dose of 100 mg/kg on day 7
Mus musculus [4] = test: Protection against LPS-induced death of D-galactosamine-sensitized mice (10 in number) at specified dose of 50 mg/kg on day 7

Structure (SMILES): CCCCN1C2Cc3cc4c(cc3C1Cc1cc3c(cc12)OCO3)OCO4
IC50 (Mus musculus [1]): 58 µM

IC50 (Mus musculus [1]): > 100 µM
Structure (SMILES): CC(=O)Oc1cc2c(cc1OC(C)=O)C1Cc3cc(OC(C)=O)c(OC(C)=O)cc3C(C2)N1C(C)=O

Structure (SMILES): O=C(CO)N1C2Cc3cc4c(cc3C1Cc1cc3c(cc12)OCO3)OCO4
Survival rate (Mus musculus [2]): 0 number of mice
IC50 (Mus musculus [1]): 20 µM
Survival rate (Mus musculus [3]): 9 number of mice
Survival rate (Mus musculus [4]): 6 number of mice

Structure (SMILES): O=CN1C2Cc3cc4c(cc3C1Cc1cc3c(cc12)OCO3)OCO4
Survival rate (Mus musculus [2]): 0 number of mice
IC50 (Mus musculus [1]): 22 µM
Survival rate (Mus musculus [3]): 7 number of mice
Survival rate (Mus musculus [4]): 7 number of mice

Structure (SMILES): CCCCCC(=O)N1C2Cc3cc4c(cc3C1Cc1cc3c(cc12)OCO3)OCO4
IC50 (Mus musculus [1]): > 100 µM

IC50 (Mus musculus [1]): 44 µM
Structure (SMILES): Oc1cc2c(cc1O)C1Cc3cc4c(cc3C(C2)N1)OCO4 (stereo not drawn)

Structure (SMILES): c1c2c(cc3c1OCO3)C1Cc3cc4c(cc3C(C2)N1)OCO4
Survival rate (Mus musculus [2]): 0 number of mice
IC50 (Mus musculus [1]): 15 µM
Survival rate (Mus musculus [3]): 10 number of mice
Survival rate (Mus musculus [4]): 7 number of mice

IC50 (Mus musculus [1]): > 100 µM
Structure (SMILES): CC(=O)N1C2Cc3cc(O)c(O)cc3C1Cc1cc(O)c(O)cc12

Structure (SMILES): NCCCN1C2Cc3cc4c(cc3C1Cc1cc3c(cc12)OCO3)OCO4
IC50 (Mus musculus [1]): 52 µM

Structure (SMILES): CC(=O)N1C2Cc3cc4c(cc3C1Cc1cc3c(cc12)OCO3)OCO4
Survival rate (Mus musculus [2]): 0 number of mice
IC50 (Mus musculus [1]): 13 µM
Survival rate (Mus musculus [3]): 9 number of mice
Survival rate (Mus musculus [4]): 7 number of mice

IC50 (Mus musculus [1]): 46 µM
Structure (SMILES): CC(=O)N1C2Cc3cc4c(cc3C1Cc1cc(O)c(O)cc12)OCO4 (stereo not drawn)

Structure (SMILES): CCCC(=O)N1C2Cc3cc4c(cc3C1Cc1cc3c(cc12)OCO3)OCO4
Survival rate (Mus musculus [2]): 0 number of mice
IC50 (Mus musculus [1]): 11 µM
Survival rate (Mus musculus [3]): 5 number of mice
Survival rate (Mus musculus [4]): 4 number of mice

Structure (SMILES): CC(=O)CCCCn1c(=O)c2c(ncn2C)n(C)c1=O [PENTOXIFYLLINE]
Survival rate (Mus musculus [2]): 0 number of mice
IC50 (Mus musculus [1]): 68 µM
Survival rate (Mus musculus [3]): 4 number of mice

Structure (SMILES): CCC(=O)N1C2Cc3cc4c(cc3C1Cc1cc3c(cc12)OCO3)OCO4
Survival rate (Mus musculus [2]): 0 number of mice
IC50 (Mus musculus [1]): 11 µM
Survival rate (Mus musculus [3]): 8 number of mice
Survival rate (Mus musculus [4]): 8 number of mice

IC50 (Mus musculus [1]): 100 µM
Structure (SMILES): COc1cc2c(cc1OC)C1Cc3cc4c(cc3C(C2)N1)OCO4 (stereo not drawn)

Structure (SMILES): CCOC(=O)CC(=O)N1C2Cc3cc4c(cc3C1Cc1cc3c(cc12)OCO3)OCO4
Survival rate (Mus musculus [2]): 0 number of mice
IC50 (Mus musculus [1]): 26 µM
Survival rate (Mus musculus [3]): 3 number of mice
Survival rate (Mus musculus [4]): 2 number of mice

Structure (SMILES): COCC(=O)N1C2Cc3cc4c(cc3C1Cc1cc3c(cc12)OCO3)OCO4
IC50 (Mus musculus [1]): 17 µM

Structure (SMILES): c1c2c(cc3c1OCCO3)C1Cc3cc4c(cc3C(C2)N1)OCCO4
Survival rate (Mus musculus [2]): 0 number of mice
IC50 (Mus musculus [1]): 22 µM
Survival rate (Mus musculus [3]): 4 number of mice
Survival rate (Mus musculus [4]): 1 number of mice

Structure (SMILES): CCCN1C2Cc3cc4c(cc3C1Cc1cc3c(cc12)OCO3)OCO4
IC50 (Mus musculus [1]): 56 µM

IC50 (Mus musculus [1]): > 100 µM
Structure (SMILES): COc1cc2c(cc1OC)C1Cc3cc(OC)c(OC)cc3C(C2)N1

IC50 (Mus musculus [1]): > 100 µM
Structure (SMILES): Oc1cc2c(cc1O)C1Cc3cc(O)c(O)cc3C(C2)N1

Structure (SMILES): CN1C2Cc3cc4c(cc3C1Cc1cc3c(cc12)OCO3)OCO4
IC50 (Mus musculus [1]): 19 µM

Structure (SMILES): O=C(CCO)N1C2Cc3cc4c(cc3C1Cc1cc3c(cc12)OCO3)OCO4
Survival rate (Mus musculus [2]): 0 number of mice
IC50 (Mus musculus [1]): 27 µM
Survival rate (Mus musculus [3]): 6 number of mice
Survival rate (Mus musculus [4]): 5 number of mice

Structure (SMILES): OCCN1C2Cc3cc4c(cc3C1Cc1cc3c(cc12)OCO3)OCO4
Survival rate (Mus musculus [2]): 0 number of mice
IC50 (Mus musculus [1]): 36 µM
Survival rate (Mus musculus [3]): 9 number of mice
Survival rate (Mus musculus [4]): 7 number of mice

Structure (SMILES): CCOC(=O)C(=O)N1C2Cc3cc4c(cc3C1Cc1cc3c(cc12)OCO3)OCO4
Survival rate (Mus musculus [2]): 0 number of mice
IC50 (Mus musculus [1]): 15 µM
Survival rate (Mus musculus [3]): 2 number of mice
Survival rate (Mus musculus [4]): 3 number of mice

Structure (SMILES): CCOC(=O)N1C2Cc3cc4c(cc3C1Cc1cc3c(cc12)OCO3)OCO4
Survival rate (Mus musculus [2]): 0 number of mice
IC50 (Mus musculus [1]): 31 µM
Survival rate (Mus musculus [3]): 3 number of mice
Survival rate (Mus musculus [4]): 3 number of mice

Structure (SMILES): O=C(c1ccccc1)N1C2Cc3cc4c(cc3C1Cc1cc3c(cc12)OCO3)OCO4
IC50 (Mus musculus [1]): 38 µM

IC50 (Mus musculus [1]): 38 µM
Structure (SMILES): COc1cc2c(cc1OC)C1Cc3cc(OC)c(OC)cc3C(C2)N1C(C)=O

Structure (SMILES): CC(=O)N1C2Cc3cc4c(cc3C1Cc1cc3c(cc12)OCCO3)OCCO4
Survival rate (Mus musculus [2]): 0 number of mice
IC50 (Mus musculus [1]): 34 µM
Survival rate (Mus musculus [3]): 7 number of mice
Survival rate (Mus musculus [4]): 4 number of mice

Structure (SMILES): CNC(=O)N1C2Cc3cc4c(cc3C1Cc1cc3c(cc12)OCO3)OCO4
Survival rate (Mus musculus [2]): 0 number of mice
IC50 (Mus musculus [1]): 15 µM
Survival rate (Mus musculus [3]): 6 number of mice
Survival rate (Mus musculus [4]): 6 number of mice

Structure (SMILES): CCN1C2Cc3cc4c(cc3C1Cc1cc3c(cc12)OCO3)OCO4
Survival rate (Mus musculus [2]): 0 number of mice
IC50 (Mus musculus [1]): 27 µM
Survival rate (Mus musculus [3]): 10 number of mice
Survival rate (Mus musculus [4]): 9 number of mice

IC50 (Mus musculus [1]): 22 µM
Structure (SMILES): COc1cc2c(cc1OC)C1Cc3cc4c(cc3C(C2)N1C(C)=O)OCO4 (stereo not drawn)

Structure (SMILES): NCCN1C2Cc3cc4c(cc3C1Cc1cc3c(cc12)OCO3)OCO4
Survival rate (Mus musculus [2]): 0 number of mice
IC50 (Mus musculus [1]): 14 µM
Survival rate (Mus musculus [3]): 8 number of mice
Survival rate (Mus musculus [4]): 8 number of mice
